Assay results as given in a melting point compilation (Tetko et al.; mined from patent text by program, amines drawn as free bases though some values may be those of a salt).

Structure (SMILES) | melting point
CC(C)c1cccc(C(C)C)c1-c1cc(OCc2ccccc2)ccc1CC(NC(c1ccccc1)c1ccccc1)C(N)=O (stereo unspecified) | 148 to 150 °C
COc1cc2c(C=O)c[nH]c2c2c1OCCC2=O | 236 °C
CCCCS(=O)(=O)Nc1ccc(Oc2cccc3cccnc23)cc1 | 162 °C
CCC(C(C)=CC(CNC(=O)c1cccnc1F)=NO)[N+](=O)[O-] (stereo unspecified) | 91 to 92 °C
CN(C)S(=O)(=O)c1ccc(C(F)(F)F)cc1N | 65 to 70 °C
CC1=C(C(=O)c2ccc(Cl)cc2)C(=O)C2C=CC=CC2C1=O (stereo unspecified) | 136 to 137 °C
CCOC1Nc2c(ccc(OC)c2OC(C)=O)C(=O)N2CCCC12 (stereo unspecified) | 143 to 146 °C
O=C1NC(=O)C(CC(=O)N2CCN(c3cccc(CNC(=O)c4nc5ccccc5c(=O)[nH]4)c3)CC2)N1 (stereo unspecified) | 280 to 282 °C
CCOC(=O)Nc1ccc(OC)nc1 | 76 °C
CC(=O)Nc1cccnc1NC(=O)C(C)(C)Oc1cccc(Cl)n1 | 185 °C
CNCC(O)COc1ccccc1 (stereo unspecified) | 74 to 77 °C
O=C(Oc1ccc([N+](=O)[O-])cc1)C(O)O | 100 to 102 °C
CS(=O)(=O)OCc1cc(I)cc(I)c1I | 130 to 133 °C
CCOC(=O)C1=Cc2cc(-c3ccc(Cl)cc3)ccc2OCC1 | 131 to 134 °C
CCCn1c(=S)[nH]c(=S)c2[nH]c(C3CC3)nc21 | > 245 °C
Cc1cc(N2CCN(c3c(C)c(C)c4c(c3C)CC(C)(C)O4)CC2)ccc1F | 143 to 145 °C
CN1CCCC2CCCC(N(C)C(=O)Cc3ccc(Cl)c(Cl)c3)C21 (stereo unspecified) | 92 °C
C=C[C@@H](C[C@H](O)[C@H](CC1CCCCC1)NC(=O)[C@H](Cc1c[nH]cn1)NC(=O)[C@@H](CC(=O)N1CCC(C(=O)OCC)CC1)Cc1ccccc1)C(C)C | 103 °C
CCN1C(=O)Cc2cc3c(cc21)C(=O)c1ccccc1CO3 | 186 to 188 °C
Cc1ccc(Nc2nc(Cl)nc(NC3CCCCCC3)n2)cc1F | 149 °C
O=C(O)c1c(Cl)ccc2c1OCCO2 | 162 °C
CC(C)c1cccc(C(C)C)c1OCC(N)=O | 136 to 138 °C
CCCn1nc2c(N)nc3ccccc3c2c1CC(C)(C)S(C)(=O)=O | 202 to 204 °C
Brc1ccc(-c2ccc(-c3ccc(Br)s3)c3nsnc23)s1 | 247 to 248 °C
COc1cc(OC)c(/C=C2/C(=O)NC(=O)/C2=C/c2ccccc2)c(OC)c1 | 246 to 248 °C
N#Cc1cc(OCCOCC2CC2)ccc1OCC(O)CNCCNC(=O)Nc1ccccc1 (stereo unspecified) | 110 to 113 °C

Structure (SMILES) | melting point
CCC1C(=O)Nc2cc3[nH]c(-c4ccc(NC(C)=O)cc4OC)nc3cc21 (stereo unspecified) | 245 to 249 °C
CCOC(=O)c1sc(Cl)nc1-c1ccc([N+](=O)[O-])cc1 | 146 to 148 °C
CCCCC1(N(C)C)CCC(c2[nH]c3ccccc3c2C)(c2[nH]c3ccccc3c2CCN)CC1 (stereo unspecified) | 105 to 112 °C
CN(c1cccc2cc(C3=NCC(CC(=O)O)S3)[nH]c12)S(=O)(=O)c1nccs1 (stereo unspecified) | 121 to 123 °C
CCCCCCC(CCC(=O)OO)CC(=O)OO (stereo unspecified) | 51.5 to 52.5 °C
COc1cc(C)ccc1CNC(=O)C(=O)NCCc1ccc(C)cn1 | 116 to 117 °C
COC1(c2cc(Sc3ccc(/C(C)=N/O)cc3)nc(N)n2)CCOCC1 | 237 to 240 °C
CN(C)c1ccc(C(=O)C(C)(C)N2CCOCC2)cc1 | 152 to 155 °C
Cc1cc(C)c(Nc2nc(C)ncc2S(=O)(=O)c2ccc(-c3ccncc3)cc2)c(C)c1 | 232 to 234 °C
CCCSc1ncc(CC(NC(=O)CCC)C(=O)O)n1Cc1ccccc1Cl (stereo unspecified) | 178 to 181 °C
CC(=O)OCCCN1CCC(CNC(=O)[C@@H]2CCCN2S(=O)(=O)c2ccc(Cl)c(COc3cccc4c(-n5cncn5)cc(C)nc34)c2Cl)CC1 | 120 °C
N#Cc1cncc(C2OC(CO)C(O)C2O)c1 (stereo unspecified) | 169 to 171 °C
CSC(=NCCSCc1ncccc1O)NC#N | 192 to 194 °C
CCN(C)c1ccc(Cl)nn1 | 61 to 63 °C
CCCC(=O)Nc1cc(C(=O)Nc2cc(C(=O)Nc3ccc(O)cc3CCBr)n(C)c2)n(C)c1 | 138 to 150 °C
CN1C(=O)C(C(=O)Nc2ccc(F)cc2)S(=O)(=O)c2ccccc21 (stereo unspecified) | 189 to 192 °C
COc1cccc(Nc2ccnc(Nc3cc(OC)c(OC)c(OCc4ccccc4)c3)n2)c1 | 83 to 84 °C
CCCCCCOC(=O)C(O)C1OC(n2cnc3c(N)ncnc32)C(O)C1O (stereo unspecified) | 145 to 147 °C
CCCCCCCCC(=O)NCc1ccc(Oc2ccccc2[N+](=O)[O-])c(OC)c1 | 93 to 93.5 °C
CC1COc2c(N3CCN(C#N)CC3NC(=N)N)c(F)cc3c(=O)c(C(=O)O)cn1c23 (stereo unspecified) | 298 to 300 °C
COc1ccc(C2=NN(C3CCN(S(=O)(=O)Cc4ccccc4)CC3)C(=O)CC2)cc1OC | 114 °C
COC(=O)CCc1nc(C=O)ccc1OC | 95 to 97 °C
Cc1ccc(S(=O)(=O)c2ccc(N3CCN(C)CC3)cc2N)cc1 | 148 to 151 °C
CCCCCCCCCCCCCCCCCCOc1cc(NC(=O)OCc2ccccc2)cc(OCCCOc2ccccc2)c1 | 68 to 69 °C
O=[N+]([O-])c1ccc2c(c1)CN(Cc1ccccc1)CC2 | 85 to 86 °C
Cc1ccc(C(=O)Oc2c(N3CCCC3)c(=O)n(-c3ccccc3)c3ncccc23)cc1 | 216 to 217 °C

Structure (SMILES) | melting point
COc1ccsc1C1OC(=O)NC1=O (stereo unspecified) | 156 to 158 °C
C=CCN1CCc2c(sc(N)c2C(=O)c2ccc(Cl)cc2)C1 | 118 to 120 °C
O=C(O)C12C3C4C5C3C1C5C42 (stereo unspecified) | 154 to 155 °C
CCC(C)NC(C(=O)NCCCC(c1ccc(F)cc1)c1ccc(F)cc1)C(C)C (stereo unspecified) | 77 to 81 °C
CN1COc2cc3c4c(cccc4c21)C(=O)N(O)C3=O | 263 to 265 °C
Oc1cccc(CN2CCCC2)c1 | 100 to 102 °C
CCCCC(CC)C(=O)Nc1ccc(-n2nc(C(F)(F)F)cc2C(F)(F)F)cc1 (stereo unspecified) | 127 to 128 °C
N#Cc1cc(C(=O)Cl)n(/C=C/c2ccccc2)c1 | 119 to 121 °C
C=CCOc1cccc(-n2cnc(C(=O)OCC)c2)c1 | 53 to 55 °C
CN1Cc2ccccc2CC1c1ccc(C(C)(C)C)cc1 (stereo unspecified) | 53 to 54.5 °C
O=C(CCC(=O)N1CCC(c2ccc(Cl)cc2)CC1)c1ccc2c(c1)CCN(CC1CCCO1)CC2 (stereo unspecified) | 123 to 125 °C
CC1(C)CCCC(C)(C)N1Cc1ccc2cc(NC(=O)c3ccc(-c4ccc(F)cc4)cc3)ccc2c1 | 238 to 241 °C
CC(C)(C)OC(=O)NCOc1ccccc1C(=O)OCC#N | 144 to 146 °C
CC(=O)N(C)C1CCC(O)(c2ccc(Cl)c(Cl)c2)c2ccccc21 (stereo unspecified) | 146 to 148 °C
O=C(O)Cc1ccc(NC(=O)C(COc2cccc(Cl)c2)NS(=O)(=O)c2ccc(Cl)cc2)cc1 (racemic) | 220 to 221 °C
CCCCCCCN(CCCCCSc1nc(-c2ccccc2)c(-c2ccccc2)[nH]1)C(=N)Nc1ccccc1 | 135 to 136 °C
CNC(=N)Cc1nc(C(C)C)c(Sc2cc(Cl)cc(Cl)c2)n1C | 176 to 178 °C
CCC1(C)NC(=O)N=C1SCc1ccccc1N(C)C (stereo unspecified) | 111 to 113 °C
N#Cc1nn(-c2c(Cl)cc(C(F)(F)F)cc2Cl)c(N)c1C#N | 221 to 222 °C
O=C(c1cc(-c2ccccc2)c2sccc2c1)N1CCCCC1 | 112 °C
C#CCNC(=O)N1CC(c2ccc(C(C)(C)C)cc2)C1 | 141 °C
COc1cc(C(=O)NCc2ccc(N)cc2)cc(OC)c1OC(C)=O | 47 to 48 °C
COC(=O)c1cc(S(C)(=O)=O)ccc1OCC(C)C | 76 to 81 °C
NC(=O)C(c1ccc(Cl)cc1)c1ccc(-n2ncc(=O)[nH]c2=O)cc1Cl (stereo unspecified) | 161 °C
COc1ccc(C(=O)C(CC(=O)O)c2ccccc2)cc1 (stereo unspecified) | 157 to 159 °C
O=C(/C=C/c1ccccc1)Nc1ccccc1C(=O)O | 188 to 189 °C

Structure (SMILES) | melting point
COC(=O)CCc1cc(O)cc2cc(-c3ccc(O)cc3)oc12 | 167 to 170 °C
Cc1ccc(-c2cc(C(=O)O)nn2Cc2ccc(F)cc2)cc1C | 141 °C
CC(C)c1cc(Oc2c(I)cc(CP(=O)(O)O)cc2I)ccc1O | > 220 °C
O=C(O)c1ccc(Cl)cc1OCCN1CCC(c2cn(Cc3ccoc3)c3ncccc23)CC1 | 81.6 to 83.3 °C
CCN1CC(OCC2CC2)(C(F)(F)F)c2cc(F)ccc2NC1=O (stereo unspecified) | 156 °C
CCCn1c(=O)c2c(N)n(C(=O)OC)nc2c2ccccc21 | 180 to 184 °C
OCC1CCCc2c1ncn2C(c1ccccc1)(c1ccccc1)c1ccccc1 (stereo unspecified) | 168 to 170 °C
COc1cc(OC)nc(Oc2cccc3c2C(=O)OC3Oc2ccccc2)n1 (stereo unspecified) | 155 to 157 °C
CN(C)CCCCCCCOc1ccc(-c2nnc(CSCCOc3ccccc3)o2)cc1 | 39 to 40 °C
O=C1CCC(N2C(=O)c3cccc(CNC(=O)c4cc5ccccc5cn4)c3C2=O)C(=O)N1 (stereo unspecified) | 198 to 200 °C
COc1ccc(C(=O)Nc2ccc(F)c(F)c2)cc1NCc1ccc(C(=O)O)cc1 | > 240 °C
CCCc1c(OC(C)c2cccc(C(=O)O)c2)ccc(C(C)=O)c1O (stereo unspecified) | 101 to 103 °C
O=C(CCCCl)Nc1nnc(-c2ccc(Br)cc2)s1 | 187 to 189 °C
CCCc1c(OCC(O)COc2cccc(NC(=O)C(=O)OCC)c2C#N)ccc(C(C)=O)c1O (stereo unspecified) | 172 to 174 °C
Cc1ccc(C(=O)Nc2cccc(C(F)(F)F)c2)cc1-c1ccc2ccncc2c1 | 157 to 159 °C
COC(Cn1cncn1)(c1ccc(F)cc1F)C(F)(F)S(=O)(=O)CCO (stereo unspecified) | 108 to 110 °C
CC1=C(c2ccc(F)c(F)c2)C(=NO)CC1 | 155 to 156 °C
COc1ccc2c(c1)Sc1cc(OC(C)=O)c3ccccc3c1N2 | 156 to 158 °C
CC(N)=CC(=O)CS(=O)(=O)NC(C)C | 119 to 121 °C
COc1ccc(C2=NN(C)C(=O)[C@H]3CCCC[C@@H]23)cc1OC (relative stereo) | 110 to 112 °C
O=[N+]([O-])c1ccccc1OCc1ccccc1 | < 50 °C
CCOC(=O)c1ccc(SC)c(Cl)c1N(CC)S(C)(=O)=O | 70.5 to 73.5 °C
CCCCCCCC(O)CNCCCNCC(O)CCCCCCC (stereo unspecified) | 107 to 109 °C
